The subject of test [1] is PLCγ2Y1217 phosphorylation. The test can be described thus: Phosphorylation of PLCγ2 Y1217 in anti-IgM stimulated Ramos cells. As to conditions: Homo sapiens, 4 hrs treatment, anti-IgM 10 min, read-out: EC50, inhibition of phosphorylation of PLCγ2Y1217. Type of test: cell-based. As to the method: (§1) We further characterized the properties of the compounds by assaying a number of cellular biochemical and functional endpoints. In particular, we assessed the selectivity of Compound 1 for inhibition of Btk versus the closely related protein kinases S6K, AKT, ErK, JAK3, and STAT5. Ramos cells (human B cells, purchased from ATCC) were treated with different concentrations of 10 nM, 100 nM, 1000 nM of the compounds of formula (I) for 4 hrs, followed by stimulation with anti-IgM for 10 min, and then the samples were harvested. We determined the effect of compounds on phosphorylation of BTKY223, PLCγ1Y783, PLCγ2Y759, PLCγ2Y1217, AKTT308, Erk1/2T202/204, JAK3 T980/981, STAT5 T694, mTORC1T389, MNK2 (FIG. 1).

For a further test, the target named is BTK (Homo sapiens, UniProt Q06187). The test can be described thus: In vitro enzymatic activity (ADP-Glo). Type of test: biochemical. Details: purchased Progema (US) [sic; Promega]. The conditions noted are these: 4 hrs preincubation, 10 μM ATP. As to the method:
In the experimental assay of in vitro enzymatic activity, the IC50 values of Compound 1 and Compound 19 on different kinases including BTK, EGFR (WT), EGFR/T790M, EGFR L858R/T790M, JAK1, JAK2, and JAK3 were determined. The intracellular segment (699-1068) region of EGFR was cloned into the insect expression vector pAcG2T, and was protein expressed by using an insect expression system, BaculoGold™ Baculovirus Expression System (BD Pharmingen), with GST tag. The mutations of T790M and L858R sites were performed simultaneously to give T790M single mutant vector and T790M/L858R double mutant vector of EGFR, respectively. The established vectors were transfected into SF9 packaging viruses, so as to infect the SF9-expressed proteins with the viruses; JAK1 and JAK2 were purchased from Life Technologies (US) and Abcam (US), respectively; JAK3 and BTK were purchased from Progema (US). […]
(§2) 10 μL of kinase detection reagent was added to transfer ADP into ATP, and the newly obtained ATP was detected by using coupled luciferase/fluorescein reaction, then the IC50 values were calculated by using a plotting method based on the Envision reading.
(In ADP-Glo the light output rises with the ADP produced.)

Another test deals with T1, tyrosine Y223 on Btk (Homo sapiens, UniProt Q06187).
T1 construct: host or cells: Ramos cells
T1 sequence (Q06187 whole entry): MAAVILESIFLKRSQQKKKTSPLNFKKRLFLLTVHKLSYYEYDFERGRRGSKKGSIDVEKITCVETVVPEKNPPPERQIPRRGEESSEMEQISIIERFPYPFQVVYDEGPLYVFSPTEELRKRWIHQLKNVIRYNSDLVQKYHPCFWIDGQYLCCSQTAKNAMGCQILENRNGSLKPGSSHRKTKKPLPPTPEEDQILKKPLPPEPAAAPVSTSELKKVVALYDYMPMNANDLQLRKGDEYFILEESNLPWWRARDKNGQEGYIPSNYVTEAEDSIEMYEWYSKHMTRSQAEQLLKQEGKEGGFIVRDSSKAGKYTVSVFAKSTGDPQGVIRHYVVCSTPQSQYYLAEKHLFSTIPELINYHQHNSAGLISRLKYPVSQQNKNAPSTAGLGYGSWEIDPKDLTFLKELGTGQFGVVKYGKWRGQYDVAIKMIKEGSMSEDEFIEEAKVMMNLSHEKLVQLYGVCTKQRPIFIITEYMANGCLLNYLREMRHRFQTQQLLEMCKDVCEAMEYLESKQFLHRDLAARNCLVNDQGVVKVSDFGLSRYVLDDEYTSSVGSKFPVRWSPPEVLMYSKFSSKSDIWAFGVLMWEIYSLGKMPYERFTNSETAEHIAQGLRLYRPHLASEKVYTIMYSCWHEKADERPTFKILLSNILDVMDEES
The test can be described thus: Phosphorylation of BTK Y223 in anti-IgM stimulated Ramos cells. Type of test: cell-based. As to conditions: 4 hrs treatment, anti-IgM 10 min, read-out: EC50, inhibition of phosphorylation of tyrosine Y223 on Btk. The method, then:
as §1

A further test concerns the target T2, EGFR (T790M) (Homo sapiens, UniProt P00533, T790M).
T2 construct: The intracellular segment (699-1068) region of EGFR was cloned into the insect expression vector pAcG2T; GST; made in house; host or cells: SF9 insect cells (baculovirus)
The test can be described thus: In vitro enzymatic activity (ADP-Glo). Type of test: biochemical. The conditions noted are these: 4 hrs preincubation, 10 μM ATP. The method, then: (§3) In the experimental assay of in vitro enzymatic activity, the IC50 values of Compound 1 and Compound 19 on different kinases including BTK, EGFR (WT), EGFR/T790M, EGFR L858R/T790M, JAK1, JAK2, and JAK3 were determined. The intracellular segment (699-1068) region of EGFR was cloned into the insect expression vector pAcG2T, and was protein expressed by using an insect expression system, BaculoGold™ Baculovirus Expression System (BD Pharmingen), with GST tag. The mutations of T790M and L858R sites were performed simultaneously to give T790M single mutant vector and T790M/L858R double mutant vector of EGFR, respectively. The established vectors were transfected into SF9 packaging viruses, so as to infect the SF9-expressed proteins with the viruses; JAK1 and JAK2 were purchased from Life Technologies (US) and Abcam (US), respectively; JAK3 and BTK were purchased from Progema (US).
(§4) BTK protein kinase 9 μL (concentration of 1.5 ng/μL), JAK1, JAK2, JAK3 protein kinases 9 μL (concentration of 3 ng/μL, 3 ng/μL, 1.5 ng/μL), purified EGFR (WT), EGFR (T790M), EGFR (T790M/L858R) protein kinases 9 μL (all with concentration of 6 ng/μL) were respectively used, and each was reacted with three-fold gradient dilution of pharmaceutical Compound 1 and Compound 19 (final concentrations of the agents were 10 μM, 3 μM, 1 μM, 0.3 μM, 0.1 μM, 0.03 μM, 0.01 μM, 0.003 μM), respectively, at room temperature for 4 hrs;
(§5) 2 μL of ATP and 3 μL of substrate, Poly(4:1 Glu, Tyr)Peptide (Promega, US), were added (final concentrations are 10 μM and 0.2 μg/μL, respectively), and reacted at 37° C. for 1 hr;
(§6) 5 μL of reacted kinase solution was added into 5 μL of ADP-Glo™ (Promega, US) and reacted at room temperature for 40 min, the kinase reaction was stopped and the remained ATP was consumed;
as §2

The target of the next test is T3, JAK3 (Homo sapiens, UniProt P52333).
T3 construct: purchased Progema (US) [sic; Promega]
T3 sequence (P52333 whole entry): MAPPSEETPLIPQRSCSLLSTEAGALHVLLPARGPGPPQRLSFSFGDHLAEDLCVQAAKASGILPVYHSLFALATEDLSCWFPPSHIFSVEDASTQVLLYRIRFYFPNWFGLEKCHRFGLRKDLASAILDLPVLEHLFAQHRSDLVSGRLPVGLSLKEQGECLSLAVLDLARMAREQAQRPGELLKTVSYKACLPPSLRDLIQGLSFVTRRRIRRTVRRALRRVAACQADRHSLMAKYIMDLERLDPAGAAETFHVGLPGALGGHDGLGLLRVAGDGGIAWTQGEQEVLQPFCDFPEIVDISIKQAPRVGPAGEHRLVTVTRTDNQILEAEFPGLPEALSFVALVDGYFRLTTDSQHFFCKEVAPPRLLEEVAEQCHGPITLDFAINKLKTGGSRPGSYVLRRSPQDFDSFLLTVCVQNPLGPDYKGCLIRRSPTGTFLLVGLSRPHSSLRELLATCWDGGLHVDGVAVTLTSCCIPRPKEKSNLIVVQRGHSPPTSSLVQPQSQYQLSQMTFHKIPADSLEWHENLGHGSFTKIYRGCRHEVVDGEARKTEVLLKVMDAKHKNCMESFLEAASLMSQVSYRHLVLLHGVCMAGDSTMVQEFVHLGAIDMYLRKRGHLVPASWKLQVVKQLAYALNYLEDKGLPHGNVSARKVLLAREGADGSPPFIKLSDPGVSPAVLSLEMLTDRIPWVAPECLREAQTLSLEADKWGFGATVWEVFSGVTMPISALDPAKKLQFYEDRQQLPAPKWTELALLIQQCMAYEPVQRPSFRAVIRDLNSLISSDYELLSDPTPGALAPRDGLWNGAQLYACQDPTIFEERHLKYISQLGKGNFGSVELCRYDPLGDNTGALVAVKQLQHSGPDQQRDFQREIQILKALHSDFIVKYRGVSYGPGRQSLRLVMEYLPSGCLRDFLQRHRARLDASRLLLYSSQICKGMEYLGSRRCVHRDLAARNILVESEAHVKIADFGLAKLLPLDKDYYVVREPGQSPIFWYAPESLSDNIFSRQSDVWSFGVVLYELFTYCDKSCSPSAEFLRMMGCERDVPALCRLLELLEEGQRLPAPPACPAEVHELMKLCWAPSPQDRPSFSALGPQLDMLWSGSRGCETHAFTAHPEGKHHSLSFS
The test can be described thus: In vitro enzymatic activity (ADP-Glo). Type of test: biochemical. As to conditions: 4 hrs preincubation, 10 μM ATP. As to the method:
as §3, §4, §5, §6, §2

Another test deals with T4, EGFR (T790M/L858R) (Homo sapiens, UniProt P00533, L858R/T790M).
T4 construct: The intracellular segment (699-1068) region of EGFR was cloned into the insect expression vector pAcG2T; GST; made in house; host or cells: SF9 insect cells (baculovirus)
T4 sequence (P00533 699-1068 T790M/L858R): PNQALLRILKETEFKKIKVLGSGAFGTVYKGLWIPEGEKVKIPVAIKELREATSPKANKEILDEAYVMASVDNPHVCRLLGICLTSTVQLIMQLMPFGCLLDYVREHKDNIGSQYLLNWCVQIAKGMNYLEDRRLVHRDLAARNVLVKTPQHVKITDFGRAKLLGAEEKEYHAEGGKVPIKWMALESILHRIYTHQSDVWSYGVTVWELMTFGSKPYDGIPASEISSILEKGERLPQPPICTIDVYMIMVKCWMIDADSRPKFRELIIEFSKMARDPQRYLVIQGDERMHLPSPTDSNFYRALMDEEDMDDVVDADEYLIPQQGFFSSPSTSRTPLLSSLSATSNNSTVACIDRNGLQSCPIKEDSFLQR
The test can be described thus: In vitro enzymatic activity (ADP-Glo). Type of test: biochemical. The conditions noted are these: 4 hrs preincubation, 10 μM ATP. As to the method: as §3, §4, §5, §6, §2

The next test has as its target T5, EGFR (WT) (Homo sapiens, UniProt P00533).
T5 construct: The intracellular segment (699-1068) region of EGFR was cloned into the insect expression vector pAcG2T; GST; made in house; host or cells: SF9 insect cells (baculovirus)
The test can be described thus: In vitro enzymatic activity (ADP-Glo). Type of test: biochemical. As to conditions: 4 hrs preincubation, 10 μM ATP. The method, then: as §3, §4, §5, §6, §2

T5 sequence (P00533 699-1068): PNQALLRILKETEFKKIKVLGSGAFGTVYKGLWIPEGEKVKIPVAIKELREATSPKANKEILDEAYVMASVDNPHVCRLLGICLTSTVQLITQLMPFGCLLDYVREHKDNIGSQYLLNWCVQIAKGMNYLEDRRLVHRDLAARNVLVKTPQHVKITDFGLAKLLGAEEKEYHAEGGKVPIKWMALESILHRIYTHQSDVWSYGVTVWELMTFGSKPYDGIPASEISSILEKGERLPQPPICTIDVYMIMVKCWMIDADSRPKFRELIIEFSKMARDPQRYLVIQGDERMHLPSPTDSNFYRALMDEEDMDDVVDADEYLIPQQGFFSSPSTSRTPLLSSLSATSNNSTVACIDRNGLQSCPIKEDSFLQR
Sequence of BTK (Q06187 whole entry): as the sequence (Q06187 whole entry) above
T2 sequence (P00533 699-1068 T790M): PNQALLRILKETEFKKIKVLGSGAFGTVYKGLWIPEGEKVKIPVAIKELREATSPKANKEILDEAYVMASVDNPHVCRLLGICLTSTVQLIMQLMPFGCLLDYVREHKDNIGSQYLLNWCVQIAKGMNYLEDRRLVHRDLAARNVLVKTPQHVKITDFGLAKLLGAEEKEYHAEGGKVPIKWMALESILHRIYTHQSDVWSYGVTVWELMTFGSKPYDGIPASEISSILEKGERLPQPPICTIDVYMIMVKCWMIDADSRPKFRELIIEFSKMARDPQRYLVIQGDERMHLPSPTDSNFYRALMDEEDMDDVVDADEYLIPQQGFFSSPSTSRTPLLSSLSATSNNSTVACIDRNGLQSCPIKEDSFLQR

The term EC50 denotes the concentration at which the effect is half-maximal. Broadly, the IC50 is the midpoint of a concentration-inhibition curve. Higher therefore signals weaker potency. For the compound `C=CC(=O)Nc1cc(-n2c(=O)ccc3cnc4ccc(-n5cccn5)cc4c32)ccc1C` [Compound 1, N-(2-methyl-5-(2-oxo-9-(1H-pyrazol-1-yl)benzo[H][1,6]naphthyridin-1(2H)-yl)phenyl)acrylamide], the EC50 was determined as 360 nM in test [1] and 217 nM at tyrosine Y223 on Btk. The IC50 against BTK is 75.6 nM; on EGFR (T790M) it was 5500 nM; against JAK3, 169 nM; against EGFR (T790M/L858R) it was 1340 nM; on EGFR (WT), 2450 nM.

Values taken from US9814709B2, “Bruton's tyrosine kinase inhibitor” (HEFEI INSTITUTES OF PHYSICAL SCIENCE, CHINESE ACADEMY OF …, priority 2014, dated 2017).
